Where two headings read alike, the source gives them in different places.
How the values were obtained:
ITK = molecular target: T1, ITK (Homo sapiens, UniProt Q08881); assay: Inhibition of a panel of kinases, in vitro HotSpot kinase assay: ITK; type: biochemical; conditions: 1 μM ATP
T1 sequence (Q08881 1-620): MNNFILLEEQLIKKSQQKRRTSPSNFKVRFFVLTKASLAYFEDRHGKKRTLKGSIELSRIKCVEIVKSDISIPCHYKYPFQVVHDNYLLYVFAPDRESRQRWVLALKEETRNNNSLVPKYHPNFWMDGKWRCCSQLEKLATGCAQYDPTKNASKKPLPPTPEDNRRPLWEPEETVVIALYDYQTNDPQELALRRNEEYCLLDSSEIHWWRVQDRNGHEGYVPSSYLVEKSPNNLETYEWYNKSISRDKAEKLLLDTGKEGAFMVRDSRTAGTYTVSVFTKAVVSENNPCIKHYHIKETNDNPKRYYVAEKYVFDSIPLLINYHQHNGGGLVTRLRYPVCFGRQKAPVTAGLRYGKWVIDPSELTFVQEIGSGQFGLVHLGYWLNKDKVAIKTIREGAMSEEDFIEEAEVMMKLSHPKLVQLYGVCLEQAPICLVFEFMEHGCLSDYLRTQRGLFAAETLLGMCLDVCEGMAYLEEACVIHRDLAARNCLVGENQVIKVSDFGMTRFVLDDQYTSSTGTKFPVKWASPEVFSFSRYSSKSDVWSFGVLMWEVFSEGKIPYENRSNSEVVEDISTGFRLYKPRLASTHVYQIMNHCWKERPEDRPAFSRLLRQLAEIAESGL
Description: The degree of inhibition of a panel of kinases is determined using the in vitro HotSpot kinase assay (purified enzymes, ^33P-ATP, an appropriate substrate and 1 μM ATP).

BTK-WT = molecular target: T2, BTK-WT (Homo sapiens, UniProt Q06187); assay: Btk in vitro inhibitory activity (one of Method A TR-FRET, Method B electrophoretic mobility shift, Method C radiometric filter binding); type: biochemical; conditions: read-out: IC50 BTK-WT
T2 construct: purified from insect cells as a full-length construct containing an N-terminal 6X-His tag; His6 (N); made in house; host or cells: insect cells (baculovirus Sf21 in Method B)
Description: Btk kinase activity is determined using a time-resolved fluorescence resonance energy transfer (TR-FRET) methodology. Measurements are performed in a reaction volume of 50 μL using 96-well assay plates. […] The reaction is quenched by the addition of 1.2 equivalents of EDTA (relative to divalent cation) in 25 μL of 1× Lance buffer (Perkin-Elmer). […] The TR-FRET signal is measured on a multimode plate reader with an excitation wavelength (λEx) of 330 nm and detection wavelengths (λEm) of 615 and 665 nm. Activity is determined by the ratio of the fluorescence at 665 nm to that at 615 nm. For each compound, enzyme activity is measured at various concentrations of compound. Negative control reactions are performed in the absence of inhibitor in replicates of six, and two no-enzyme controls are used to determine baseline fluorescence levels. Inhibition constants, Ki(app), were obtained using the program BatchKi(Kuzmic et al. (2000), Anal. Biochem. 286:45-50). IC50s are obtained according to the equation:
IC50={Ki(app)/(1+[ATP]/Km^ATP)}+[E]total/2;
Kinase activity is measured in vitro using electrophoretic mobility shift assay. The kinase reactions are assembled in a total volume of 25 μL in 384 well plates. […] The reaction is incubated for one hour and is quenched by the addition of 45 μL of termination buffer (100 mM HEPES, pH7.5, 0.01% Triton X-100, 30 mM EDTA). The terminated reactions are analyzed using 12 channel LabChip® 3000 microfluidic detection instrument (Caliper Life Sciences). […] Change in the relative fluorescence intensity of the substrate and product peaks is the parameter measured, reflecting enzyme activity. In the presence of an inhibitor, the ratio between product and substrate is altered: the signal of the product decreases, while the signal of the substrate increases.
Activity in each sample is determined as the product to sum ratio (PSR): P/(S+P), where P is the peak height of the product peptide and S is the peak height of the substrate peptide. For each compound, enzyme activity is measured at various concentrations (12 concentrations of compound spaced by 3× dilution intervals). Negative control samples (0%-inhibition in the absence of inhibitor) and positive control samples (100%-inhibition, in the presence of 20 mM EDTA) are assembled in replicates of four and are used to calculate %-inhibition values for each inhibitor at each concentration. Percent inhibition (Pinh) is determined using following equation:
Pinh=(PSR0%-PSRinh)/(PSR0%−PSR100%)*100, where PSRinh is the product sum ratio in the presence of inhibitor, PSR0% is the average product sum ration in the absence of inhibitor and PSR100% is the average product sum ratio in 100%-inhibition control samples;
The IC50 values of inhibitors are determined by 4 parameter sigmoidal dose-response model fitting of the inhibition curves (Pinh versus inhibitor concentration) using XLfit 4 software.
Human Btk kinase (Genbank accession # NP_000052) was purified from insect cells as a full-length construct containing an N-terminal 6X-His tag. Btk kinase activity was determined using a radiometric filter binding assay. Measurements are performed in a low μL reaction volume 384-well assay plates. […] IC50 values and curve fits were obtained using Prism (GraphPad Software).

T2 sequence (Q06187 whole entry): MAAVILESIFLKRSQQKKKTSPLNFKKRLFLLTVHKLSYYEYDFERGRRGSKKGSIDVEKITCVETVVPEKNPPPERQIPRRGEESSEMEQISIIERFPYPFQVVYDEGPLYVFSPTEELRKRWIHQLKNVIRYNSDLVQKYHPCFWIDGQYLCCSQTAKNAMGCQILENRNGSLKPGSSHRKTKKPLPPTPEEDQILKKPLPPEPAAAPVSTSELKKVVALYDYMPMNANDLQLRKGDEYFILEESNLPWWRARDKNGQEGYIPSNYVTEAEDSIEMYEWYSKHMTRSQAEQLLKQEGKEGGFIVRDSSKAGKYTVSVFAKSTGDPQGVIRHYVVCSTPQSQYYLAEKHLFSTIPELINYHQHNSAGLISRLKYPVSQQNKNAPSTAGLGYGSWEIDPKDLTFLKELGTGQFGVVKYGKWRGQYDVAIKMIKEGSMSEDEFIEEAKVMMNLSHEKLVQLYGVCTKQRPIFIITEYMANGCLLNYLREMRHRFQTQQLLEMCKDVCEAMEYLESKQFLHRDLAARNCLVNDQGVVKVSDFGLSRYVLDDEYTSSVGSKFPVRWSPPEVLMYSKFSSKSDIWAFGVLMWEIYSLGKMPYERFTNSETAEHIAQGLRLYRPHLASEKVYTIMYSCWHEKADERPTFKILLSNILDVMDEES

IC50 (ITK; Table 15, C compounds) [µM]	IC50 (BTK-WT; Table 15, C compounds) [µM]	IC50 (ITK; Table 13, A compounds) [µM]	IC50 (BTK-WT; Table 13, A compounds) [µM]	SMILES
0.01 to 0.1	≤ 0.01	–	–	C=CC(=O)N1CCC[C@@H](Nc2nnc(C(N)=O)c(Nc3ccc(C(C)C)cc3)n2)[C@@H]1C (racemic) [Example C-33, 3-((2S,3R)-1-acryloyl-2-methylpiperidin-3-ylamino)-5-(4-isopropylphenylamino)-1,2,4-triazine-6-carboxamide]
–	–	0.1 to 1	0.01 to 0.1	C=CC(=O)N[C@@H]1CCCN(c2nnc(C(N)=O)c(Nc3ccc(C(C)C)cc3)n2)C1 [Example A-94, (R)-3-(3-acrylamido-piperidin-1-yl)-5-(4-isopropylphenylamino)-1,2,4-triazine-6-carboxamide]
–	–	0.1 to 1	0.01 to 0.1	C=CC(=O)N[C@H]1CCCN(c2nnc(C(N)=O)c(Nc3ccc(C(C)C)cc3)n2)C1 [Example A-95, (S)-3-(3-acrylamido-piperidin-1-yl)-5-(4-isopropylphenylamino)-1,2,4-triazine-6-carboxamide]
0.01 to 0.1	≤ 0.01	–	–	C=CC(=O)N1CCC[C@H](Nc2nnc(C(N)=O)c(Nc3ccc(-c4ncco4)cc3)n2)C1 [Example C-34, (S)-3-(1-acryloylpiperidin-3-ylamino)-5-(4-(oxazol-2-yl)phenylamino)-1,2,4-triazine-6-carboxamide]
0.1 to 1	≤ 0.01	–	–	C=CC(=O)N1CCCC[C@H](Nc2nnc(C(N)=O)c(Nc3ccc(C(C)C)cc3)n2)C1 [Example C-35, (S)-3-(1-acryloylazepan-3-ylamino)-5-(4-isopropylphenylamino)-1,2,4-triazine-6-carboxamide]
0.1 to 1	≤ 0.01	–	–	C=CC(=O)N1CCC[C@H](Nc2cnc(C(N)=O)c(Nc3ccc(-c4ncccn4)cc3)n2)C1 [Example C-36, (S)-5-(1-acryloylpiperidin-3-ylamino)-3-(4-(pyrimidin-2-yl)phenylamino) pyrazine-2-carboxamide]
0.1 to 1	≤ 0.01	–	–	C=CC(=O)N1CCC[C@H](Nc2cnc(C(N)=O)c(Nc3ccc(C(C)C)cc3)n2)C1 [Example C-37, (S)-5-(1-acryloylpiperidin-3-ylamino)-3-(4-isopropylphenylamino) pyrazine-2-carboxamide]
≤ 0.01	≤ 0.01	–	–	C=CC(=O)N1CCCC[C@@H](Nc2nnc(C(N)=O)c(Nc3ccc(C(C)C)cc3)n2)C1 [Example C-38, (R)-3-(1-acryloylazepan-3-ylamino)-5-(4-isopropylphenylamino)-1,2,4-triazine-6-carboxamide]
0.01 to 0.1	≤ 0.01	–	–	C=CC(=O)N1CCC[C@H](Nc2nnc(C(N)=O)c(Nc3ccc(C(C)(C)C)cc3)n2)C1 [Example C-39, (S)-3-(1-acryloylpiperidin-3-ylamino)-5-(4-tert-butylphenylamino)-1,2,4-triazine-6-carboxamide]
0.01 to 0.1	≤ 0.01	–	–	C=CC(=O)N1CCC[C@H](N(C)c2nnc(C(N)=O)c(Nc3ccc(C(C)C)cc3)n2)C1 [Example C-43, (S)-3-((1-acryloylpiperidin-3-yl)(methyl)amino)-5-(4-isopropylphenylamino)-1,2,4-triazine-6-carboxamide]
≤ 0.01	≤ 0.01	–	–	C=CC(=O)N1CCC(C)(c2ccc(Nc3nc(N[C@@H]4CCCN(C(=O)C=C)C4)nnc3C(N)=O)cc2)CC1 [Example C-45, (R)-5-(4-(1-acryloyl-4-methylpiperidin-4-yl)phenylamino)-3-(1-acryloylpiperidin-3-ylamino)-1,2,4-triazine-6-carboxamide]
0.1 to 1	≤ 0.01	–	–	CCC(=O)N1CCC[C@@H](Nc2nnc(C(N)=O)c(Nc3ccc(C(C)(C)C)cc3)n2)C1 [Example C-46, (R)-5-(4-tert-butylphenylamino)-3-(1-propionylpiperidin-3-ylamino)-1,2,4-triazine-6-carboxamide]
0.01 to 0.1	≤ 0.01	–	–	C=CC(=O)N1CCC[C@@H](Nc2nnc(C(N)=O)c(Nc3ccc(C4CC4)cc3)n2)C1 [Example C-47, (R)-3-(1-acryloylpiperidin-3-ylamino)-5-(4-cyclopropylphenyl-amino)-1,2,4-triazine-6-carboxamide]
≤ 0.01	≤ 0.01	–	–	C=CC(=O)N1CCC[C@@H](Nc2nnc(C(N)=O)c(Nc3ccc(C4(C#N)CC4)cc3)n2)C1 [Example C-48, (R)-3-(1-acryloylpiperidin-3-ylamino)-5-(4-(1-cyanocyclopropyl)phenylamino)-1,2,4-triazine-6-carboxamide]
1 to 10	≤ 0.01	–	–	C=CC(=O)N1CCC[C@@H](N(C(=O)C=C)c2nnc(C(N)=O)c(Nc3ccc(C4CC4)cc3)n2)C1 [Example C-49, (R)-3-(N-(1-acryloylpiperidin-3-yl)acrylamido)-5-(4-cyclopropylphenyl-amino)-1,2,4-triazine-6-carboxamide]
0.1 to 1	≤ 0.01	–	–	C=CC(=O)N1CCC[C@@H](N(C(=O)C=C)c2nnc(C(N)=O)c(Nc3ccc(C4(C#N)CC4)cc3)n2)C1 [Example C-50, (R)-3-(N-(1-acryloylpiperidin-3-yl)acrylamido)-5-(4-(1-cyanocyclopropyl)phenylamino)-1,2,4-triazine-6-carboxamide]
0.01 to 0.1	≤ 0.01	–	–	C=CC(=O)N1CCC[C@@H](Nc2nnc(C(N)=O)c(Nc3cccc(C)c3)n2)C1 [Example C-55, (R)-3-(1-acryloylpiperidin-3-ylamino)-5-(m-tolylamino)-1,2,4-triazine-6-carboxamide]
≤ 0.01	≤ 0.01	–	–	CN(c1cnc(C(N)=O)c(Nc2ccc(C3(C)CCN(C4CC4)CC3)cc2)n1)[C@@H]1CCN(C(=O)C(F)(F)F)C1 [Example C-66, (R)-3-(4-(1-cyclopropyl-4-methylpiperidin-4-yl)phenylamino)-5-(methyl(1-(2,2,2-trifluoroacetyl)pyrrolidin-3-yl)amino)pyrazine-2-carboxamide]
≤ 0.01	≤ 0.01	–	–	CN(c1cnc(C(N)=O)c(Nc2ccc(C3(C)CCN(C4CCCC4)CC3)cc2)n1)[C@@H]1CCN(C(=O)C(F)(F)F)C1 [Example C-68, (R)-3-(4-(1-cyclopentyl-4-methylpiperidin-4-yl)phenylamino)-5-(methyl(1-(2,2,2-trifluoroacetyl)pyrrolidin-3-yl)amino)pyrazine-2-carboxamide]
≤ 0.01	≤ 0.01	–	–	C=CC(=O)N1CCC[C@@H](Nc2nnc(C(N)=O)c(Nc3ccc(CN[C@@H](C)C(C)(C)C)cc3)n2)C1 [Example C-73, 3-((R)-1-acryloylpiperidin-3-ylamino)-5-(4-(((S)-3,3-dimethylbutan-2-ylamino)methyl)phenyl-amino)-1,2,4-triazine-6-carboxamide]
0.01 to 0.1	≤ 0.01	–	–	C=CC(=O)N1CCC[C@@H](Nc2nnc(C(N)=O)c(Nc3ccc(-c4cnn(C(=O)C=C)c4)cc3)n2)C1 [Example C-74]

From patent publication US20210070748A1, “INHIBITORS OF BRUTONS TYROSINE KINASE” (Pharmacyclics LLC, priority 2015, published 2021)
